{"source": "patent US8980944B2", "about": "(Gemmus Pharma Inc., priority 2006, dated 2015)", "key": {"IL-12": {"tested_on": "IL-12", "assay": "LPS-stimulated human monocyte-derived dendritic cells, IL-12 release (ELISA)", "conditions": "LPS stimulation"}, "IL-2": {"tested_on": "IL-2", "assay": "Anti-CD3/CD28-stimulated human CD8 cells, IL-2 release (multi-cytokine bead immunoassay)"}, "[1]": {"assay": "Study A: tolerance and pharmacokinetics in volunteers after single oral dose", "conditions": "human, in vivo"}, "TNFα [2]": {"tested_on": "TNFα", "assay": "Poly(I:C)-stimulated human monocyte-derived dendritic cells, TNFα release (ELISA)", "type": "cell-based", "conditions": "one micromolar; for TNFα percent inhibition from untreated control: Poly IC-stimulated monocyte-derived dendritic cells, 18 hours"}, "TNFα [3]": {"tested_on": "TNFα", "assay": "ConA-stimulated human peripheral blood lymphocytes, TNFα release (ELISA)", "conditions": "human T cells, ConA stimulation"}, "IFN-γ [4]": {"tested_on": "IFN-γ", "assay": "Anti-CD3/CD28-stimulated human CD8 cells, IFN-γ release (multi-cytokine bead immunoassay)"}, "clinical": {"assay": "clinical", "conditions": "human, in vivo, po"}, "GM-CSF": {"tested_on": "GM-CSF", "assay": "Anti-CD3/CD28-stimulated human CD8 cells, GM-CSF release (multi-cytokine bead immunoassay)", "conditions": "1 μM Nileprost, Anti-CD3/CD28 stimulation, individual donors 1-4"}, "IFN-γ [5]": {"tested_on": "IFN-γ", "assay": "ConA-stimulated human peripheral blood lymphocytes, IFN-γ release (ELISA)", "conditions": "for Percent inhibition of IFN-γ compared to uninhibited control: human T cells, ConA stimulation"}}, "note": "Several values for one entry are separate records, joined by “and”; a condition that tells them apart may be missing. Equal values may be shown once.", "data": [{"smiles": "CCCCC(C)[C@H](O)/C=C/[C@@H]1[C@H]2C/C(=C(\\C#N)CCCC(=O)O)O[C@H]2C[C@H]1O", "note": "(stereo partly drawn) [Nileprost]", "values": [{"measurement": "inhibitory activity in human monocyte-derived dendritic cell (DC) cytokine release", "setting": "IL-12", "value": "very high inhibitory activity"}, {"measurement": "Percent inhibition of IL-2 compared to uninhibited control", "setting": "IL-2; 1 μM Nileprost, Anti-CD3/CD28 stimulation, individual donors 1-4", "value": 70, "unit": "%"}, {"measurement": "inhibition at 1 µM", "setting": "IL-2; Homo sapiens, read-out: Percent inhibition of IL-2 compared to uninhibited control, 1 μM Nileprost, Anti-CD3/CD28 stimulation, individual donors 1-4", "value": 71, "unit": "%"}, {"measurement": "Cmax", "setting": "[1]; 32 ug", "value": "0.84 ng/mL and 2.1 nM"}, {"measurement": "Cmax", "setting": "[1]; 65 ug", "value": "0.929 ng/mL and 2.3 nM"}, {"measurement": "TNFα percent inhibition from untreated control", "setting": "TNFα [2]; Donor 1", "value": 89, "unit": "%"}, {"measurement": "TNFα percent inhibition from untreated control", "setting": "TNFα [2]; Donor 2", "value": 45, "unit": "%"}, {"measurement": "TNFα percent inhibition from untreated control", "setting": "TNFα [2]; Donor 3", "value": 74, "unit": "%"}, {"measurement": "Poly(I:C)-induced TNFα", "setting": "TNFα [2]; monocyte-derived dendritic cells", "value": "significant decrease"}, {"measurement": "inhibition at 0.001 µM", "setting": "TNFα [3]; Homo sapiens, T-cell, read-out: Percent inhibition of TNF compared to uninhibited control, Nileprost 1 nM, individual donors 3-4", "value": 24, "unit": "%"}, {"measurement": "inhibition at 0.0025 µM", "setting": "TNFα [3]; Homo sapiens, T-cell, read-out: Percent inhibition of TNF compared to uninhibited control, Nileprost 2.5 nM, individual donors 1-2", "value": 24, "unit": "%"}, {"measurement": "inhibition at 0.003 µM", "setting": "TNFα [3]; Homo sapiens, T-cell, read-out: Percent inhibition of TNF compared to uninhibited control, Nileprost 3 nM, individual donors 3-4", "value": 28, "unit": "%"}, {"measurement": "inhibition at 0.005 µM", "setting": "TNFα [3]; Homo sapiens, T-cell, read-out: Percent inhibition of TNF compared to uninhibited control, Nileprost 5 nM, individual donors 1-2", "value": 47, "unit": "%"}, {"measurement": "inhibition at 0.009 µM", "setting": "TNFα [3]; Homo sapiens, T-cell, read-out: Percent inhibition of TNF compared to uninhibited control, Nileprost 9 nM, individual donors 3-4", "value": 53, "unit": "%"}, {"measurement": "inhibition at 0.01 µM", "setting": "TNFα [3]; Homo sapiens, T-cell, read-out: Percent inhibition of TNF compared to uninhibited control, Nileprost 10 nM, individual donors 1-2", "value": 46, "unit": "%"}, {"measurement": "inhibition at 0.02 µM", "setting": "TNFα [3]; Homo sapiens, T-cell, read-out: Percent inhibition of TNF compared to uninhibited control, Nileprost 20 nM, individual donors 1-2", "value": 50, "unit": "%"}, {"measurement": "inhibition at 0.083 µM", "setting": "TNFα [3]; Homo sapiens, T-cell, read-out: Percent inhibition of TNF compared to uninhibited control, Nileprost 83 nM, individual donors 3-4", "value": 61, "unit": "%"}, {"measurement": "Percent inhibition of TNF compared to uninhibited control", "setting": "TNFα [3]; Nileprost 0.04 nM, individual donors 3-4", "value": "1% and 11%"}, {"measurement": "Percent inhibition of TNF compared to uninhibited control", "setting": "TNFα [3]; Nileprost 0.11 nM, individual donors 3-4", "value": "4% and 16%"}, {"measurement": "Percent inhibition of TNF compared to uninhibited control", "setting": "TNFα [3]; Nileprost 0.5 nM, individual donors 1-2", "value": "7% and 1%"}, {"measurement": "Percent inhibition of TNF compared to uninhibited control", "setting": "TNFα [3]; Nileprost 1 nM, individual donors 3-4", "value": 37, "unit": "%"}, {"measurement": "Percent inhibition of TNF compared to uninhibited control", "setting": "TNFα [3]; Nileprost 1.25 nM, individual donors 1-2", "value": "14% and 5%"}, {"measurement": "Percent inhibition of TNF compared to uninhibited control", "setting": "TNFα [3]; Nileprost 2.5 nM, individual donors 1-2", "value": 19, "unit": "%"}, {"measurement": "Percent inhibition of TNF compared to uninhibited control", "setting": "TNFα [3]; Nileprost 3 nM, individual donors 3-4", "value": 48, "unit": "%"}, {"measurement": "Percent inhibition of TNF compared to uninhibited control", "setting": "TNFα [3]; Nileprost 5 nM, individual donors 1-2", "value": 36, "unit": "%"}, {"measurement": "Percent inhibition of TNF compared to uninhibited control", "setting": "TNFα [3]; Nileprost 9 nM, individual donors 3-4", "value": 67, "unit": "%"}, {"measurement": "Percent inhibition of TNF compared to uninhibited control", "setting": "TNFα [3]; Nileprost 10 nM, individual donors 1-2", "value": 49, "unit": "%"}, {"measurement": "Percent inhibition of TNF compared to uninhibited control", "setting": "TNFα [3]; Nileprost 83 nM, individual donors 3-4", "value": 76, "unit": "%"}, {"measurement": "Percent inhibition of TNF compared to uninhibited control", "setting": "TNFα [3]; Nileprost 250 nM, individual donors 3-4", "value": "49% and 76%"}, {"measurement": "Percent inhibition of IFN-γ compared to uninhibited control", "setting": "IFN-γ [4]; 1 μM Nileprost, human CD8 cells, Anti-CD3/CD28 stimulation, individual donors 1-4", "value": "59% and 80%"}, {"measurement": "inhibitory activity in the cytotoxic CD8+ lymphocyte cytokine release", "setting": "IFN-γ [4]; IFN-γ, GM-CSF and IL-2, anti-CD3/CD28 stimulation", "value": "very high inhibitory activity"}, {"measurement": "Cmax", "setting": "clinical; 50 ug", "value": "0.566 ng/mL and 1.4 nM"}, {"measurement": "Cmax", "setting": "clinical; 75 ug", "value": "0.869 ng/mL and 2.2 nM"}, {"measurement": "Cmax", "setting": "clinical; 112 ug", "value": "0.803 ng/mL and 2 nM"}, {"measurement": "Cmax", "setting": "clinical; 170 ug", "value": "0.954 ng/mL and 2.4 nM"}, {"measurement": "Cmax", "setting": "clinical; 255 ug", "value": "1.71 ng/mL and 4.3 nM"}, {"measurement": "Cmax", "setting": "clinical; 375 ug", "value": "1.72 ng/mL and 4.3 nM"}, {"measurement": "Percent inhibition of GM-CSF compared to uninhibited control", "setting": "GM-CSF", "value": "65% and 61%"}, {"measurement": "Percent inhibition of IFN-γ compared to uninhibited control", "setting": "IFN-γ [5]; Nileprost 0.04 nM, individual donors 5-8", "value": "16% and 7% and 9% and 27%"}, {"measurement": "Percent inhibition of IFN-γ compared to uninhibited control", "setting": "IFN-γ [5]; Nileprost 0.11 nM, individual donors 5-8", "value": "22% and 16% and 34%"}, {"measurement": "Percent inhibition of IFN-γ compared to uninhibited control", "setting": "IFN-γ [5]; Nileprost 1 nM, individual donors 5-8", "value": "43% and 32% and 24% and 51%"}, {"measurement": "Percent inhibition of IFN-γ compared to uninhibited control", "setting": "IFN-γ [5]; Nileprost 1.25 nM, individual donors 1-4", "value": 11, "unit": "%"}, {"measurement": "Percent inhibition of IFN-γ compared to uninhibited control", "setting": "IFN-γ [5]; Nileprost 2.5 nM, individual donors 1-4", "value": 43, "unit": "%"}, {"measurement": "Percent inhibition of IFN-γ compared to uninhibited control", "setting": "IFN-γ [5]; Nileprost 3 nM, individual donors 5-8", "value": "56% and 46% and 22% and 71%"}, {"measurement": "Percent inhibition of IFN-γ compared to uninhibited control", "setting": "IFN-γ [5]; Nileprost 5 nM, individual donors 1-4", "value": "48% and 56%"}, {"measurement": "Percent inhibition of IFN-γ compared to uninhibited control", "setting": "IFN-γ [5]; Nileprost 9 nM, individual donors 5-8", "value": "59% and 60% and 48% and 73%"}, {"measurement": "Percent inhibition of IFN-γ compared to uninhibited control", "setting": "IFN-γ [5]; Nileprost 10 nM, individual donors 1-4", "value": 43, "unit": "%"}, {"measurement": "Percent inhibition of IFN-γ compared to uninhibited control", "setting": "IFN-γ [5]; Nileprost 20 nM, individual donors 1-4", "value": "56% and 67%"}, {"measurement": "Percent inhibition of IFN-γ compared to uninhibited control", "setting": "IFN-γ [5]; Nileprost 83 nM, individual donors 5-8", "value": "57% and 60% and 65% and 85%"}, {"measurement": "Percent inhibition of IFN-γ compared to uninhibited control", "setting": "IFN-γ [5]; Nileprost 250 nM, individual donors 5-8", "value": "59% and 76% and 57% and 83%"}, {"measurement": "inhibitory activity in the T lymphocyte Th-1 cytokine release", "setting": "IFN-γ [5]; dose responsively, ConA-stimulated human lymphocytes", "value": "very high inhibitory activity"}]}]}
